The subject of test [1] is Puccinia triticina; Synonym: Puccinia recondite f. sp. tritici. The test is described as follows: Wheat Brown Rust (PUCCRT) disease control on wheat seedlings. Format: in vivo. Particulars: for pest or weed control at 100 ppm: rate 100 ppm; for pest or weed control at 121.5 g/ha: rate 121.5 g/H. Here is the method:
Technical grades of materials were dissolved in acetone, which were then mixed with nine volumes of water containing 110 ppm Triton X-100. The fungicide solutions were applied onto wheat seedlings using an automated booth sprayer to run-off. All sprayed plants were allowed to air dry prior to further handling. All fungicides were evaluated using the aforementioned method for their activity vs. all target diseases. Wheat leaf blotch and brown rust activity were also evaluated using track spray applications, in which case the fungicides were formulated as EC formulations, containing 0.1% Trycol 5941 in the spray solutions. Wheat plants (variety Yuma) were grown from seed in a greenhouse in 50% mineral soil/50% soil-less Metro mix until the first leaf was fully emerged, with 7-10 seedlings per pot. These plants were inoculated with an aqueous spore suspension of Septoria tritici either prior to or after fungicide treatments. After inoculation the plants were kept in 100% relative humidity (one day in a dark dew chamber followed by two to three days in a lighted dew chamber at 20° C.) to permit spores to germinate and infect the leaf. The plants were then transferred to a greenhouse set at 20° C. for disease to develop. When disease symptoms were fully expressed on the 1st leaves of untreated plants, infection levels were assessed on a scale of 0 to 100 percent disease severity. Percent disease control was calculated using the ratio of disease severity on treated plants relative to untreated plants. Evaluation of Fungicidal Activity: Wheat Brown Rust (Puccinia triticina; Synonym: Puccinia recondite f. sp. tritici; Bayer Code PUCCRT) Wheat plants (variety Yuma) were grown from seed in a greenhouse in 50% mineral soil/50% soil-less Metro mix until the first leaf was fully emerged, with 7-10 seedlings per pot. These plants were inoculated with an aqueous spore suspension of Puccinia triticina either prior to or after fungicide treatments. After inoculation the plants were kept in a dark dew room at 22° C. with 100% relative humidity overnight to permit spores to germinate and infect the leaf. The plants were then transferred to a greenhouse set at 24° C. for disease to develop. Fungicide formulation, application and disease assessment followed the procedures as described in the Example A.

Test [2] relates to Mycosphaerella graminicola; Anamorph: Septoria tritici. Kind of test: Leaf Blotch of Wheat (SEPTTR) disease control on wheat seedlings. Format: in vivo. Particulars: Zymoseptoria tritici; for pest or weed control at 100 ppm: rate 100 ppm; for pest or weed control at 121.5 g/ha: rate 121.5 g/H. Here is the method:
Evaluation of Fungicidal Activity: Leaf Blotch of Wheat (Mycosphaerella graminicola; Anamorph: Septoria tritici; Bayer Code […]) Technical grades of materials were dissolved in acetone, which were then mixed with nine volumes of water containing 110 ppm Triton X-100. The fungicide solutions were applied onto wheat seedlings using an automated booth sprayer to run-off. All sprayed plants were allowed to air dry prior to further handling. All fungicides were evaluated using the aforementioned method for their activity vs. all target diseases. Wheat leaf blotch and brown rust activity were also evaluated using track spray applications, in which case the fungicides were formulated as EC formulations, containing 0.1% Trycol 5941 in the spray solutions. Wheat plants (variety Yuma) were grown from seed in a greenhouse in 50% mineral soil/50% soil-less Metro mix until the first leaf was fully emerged, with 7-10 seedlings per pot. These plants were inoculated with an aqueous spore suspension of Septoria tritici either prior to or after fungicide treatments. After inoculation the plants were kept in 100% relative humidity (one day in a dark dew chamber followed by two to three days in a lighted dew chamber at 20° C.) to permit spores to germinate and infect the leaf. The plants were then transferred to a greenhouse set at 20° C. for disease to develop. When disease symptoms were fully expressed on the 1st leaves of untreated plants, infection levels were assessed on a scale of 0 to 100 percent disease severity. Percent disease control was calculated using the ratio of disease severity on treated plants relative to untreated plants.

[3] abbreviates: 24 h, 1 Day Protectant, read-out: PUCCRT disease control, 1DP.
The mark [4] stands for this setting: 24 h, 1 Day Protectant, read-out: SEPTTR disease control, 1DP.
Where [5] appears, read: 72 h, 3 Day Curative, read-out: SEPTTR disease control, 3DC.
The mark [6] stands for this setting: 72 h, 3 Day Curative, read-out: PUCCRT disease control, 3DC.

The values below come from patent publication US9439422B2, “Use of macrocyclic picolinamides as fungicides” (DOW AGROSCIENCES LLC, priority 2013, dated 2016).

Where two headings read alike, the source gives them in different places.

Consider `COc1ccnc(C(=O)N[C@H]2COC[C@H](Cc3ccc(C(F)(F)F)cc3)[C@@H](OC(=O)C(C)C)[C@H](C)OC2=O)c1O` [Compound F30], for which the figures for the pest or weed control at 100 ppm in test [1] (setting [3]), in test [2] (setting [4]) and in test [2] (setting [5]) were 80 to 100%, 80 to 100% and 0 to 80%, respectively.
As for `CCOCC(=O)OCOc1c(OC)ccnc1C(=O)N[C@H]1COC[C@H](CC2CCCC2)[C@@H](OCC(C)C)[C@H](C)OC1=O` [Compound F121], the pest or weed control at 100 ppm in test [1] (setting [3]), in test [1] (setting [6]), in test [2] (setting [4]) and in test [2] (setting [5]) was 80 to 100% in each case. In addition, the pest or weed control at 121.5 g/ha in test [1] (setting [3]), in test [1] (setting [6]), in test [2] (setting [4]) and in test [2] (setting [5]) was 80 to 100% throughout.
